The subject of assay [1] is Sprague Dawley CD Rats. Kind of assay: Inhibition of Blood Coagulation Following In Vivo Oral Dosing (thrombin times of plasma). How it is done: Male rats (Sprague Dawley CD Rats, 130-140 g, supplied by Charles River Labs, Inc., Wilmington, MA) were anesthetized with sodium pentobarbital (50 mg/kg, i.p.). A midline incision was made on the ventral surface of the neck, and a polyethylene catheter was inserted in one of the carotid arteries and exteriorized at the back of the neck. After recovery from anesthesia, control blood samples were taken from the carotid artery catheter, anticoagulated with sodium citrate, and centrifuged (2000×g, 10 minutes). Plasma was transferred to plastic tubes and kept on ice until it was assayed. Thrombin times were measured using a fibrometer, as described in Examples 125-127.
The vehicle employed was 5% dimethylsulfoxide in saline. Blood samples were taken at various times after oral dosing and assayed as described above. When clotting time exceeded 300 seconds, it is reported below as >300.

In assay [2] the test system is Male Lewis rats. As to the kind of experiment: In Vivo Inhibition of Blood Coagulation Following Oral, Colonic and Rectal Administration. To be noted: mean for 3 rats. How it is done: Male Lewis rats weighing between 300-350 g were anesthetized with sodium pentobarbitol (50 mg/kg, i.p.) and the jugular vein was cannulated using a silastic tubing attached to a polyethylene 50 tubing. The tubing was exteriorized at the back of the neck and attached to a syringe through a stop cock. […] The blood samples were then transferred into vacutainers containing citrate buffer. Also, after each collection the cannula was flushed with saline. The blood samples were then centrifuged immediately (2500 rpm for 15 min) and 0.2 ml of the plasma samples were used for clotting time measurements. The clotting time measurements were carried out using a fibrometer as follows. First, plasma (0.2 ml) was placed in a fibro cup, and pH 7.4 Tris buffer (50 microliters) was added. The plasma buffer solution was incubated at 37° C. for 1 min, 50 microters of a 24 μ/ml thrombin solution in Tris buffer was then added, and clotting time in seconds was measured. When clotting time exceeded 300 seconds, it is reported below as >300.
The jugular vein-cannulated rats were allowed to recover from anesthesia before they were dosed orally. The protease inhibitor Ac-(D)Phe-Pro-boroArg--OH aqueous solution, consisting of 3 mg of inhibitor per kg weight of rat (approximately 1 mg/rat) in a volume of 0.75 ml of water per kg of rat, was administered by gavage.
A 3 cm incision was made in the abdomen of the jugular vein-cannulated rats while they were still under anesthesia. The colon was located and was tied off at both the beginning and the end. The protease inhibitor Ac-(D)Phe-Pro-boroArg--OH aqueous solution, consisting of 3 mg of inhibitor per kg weight of rat (approximately 1 mg/rat) in a volume of 1 ml of water per kg weight of rat, was injected at the beginning into the colon cavity. The incision was closed using wound clips.
The procedure for rectal administration in the jugular vein-cannulated rats was as described by Kamiya et al., J. Pharm. Sci., 71: 621 (1982). In brief, a device was made consisting of a 0.89 cm and a 0.71 cm silicon rubber septa connected by a 2 cm length of wire. This device was inserted into the rectum of the rat, the large septum first, and glued to the annus using suitable glue. Dosing was accomplished by injection through the exposed septum. The rectal dose was 3 mg of the protease inhibitor Ac-(D)Phe-Pro-boroArg--OH per kg weight of rat (approximately 1 mg/rat) in a volume of 0.6 ml of water per kg of rat.

Assay [3] deals with rats. Kind of assay: Survival after thrombin infusion following oral dosing. Format: in vivo. To be noted: 5 mg/kg orally in water; 500 units/kg thrombin infused thirty to sixty minutes later; water controls: all fourteen died. The text has this:
Thirty to sixty minutes later, all rats received an infusion of 500 units/kg thrombin over a period of one minute. All fourteen rats given only water died within ten minutes of the thrombin infusion. In contrast only 8 out of 17 rats treated with the inhibitor-containing water died within ten minutes, and the remainder survived one hour, at which time they were euthanized.

Assay [4] relates to normal rabbit plasma. Kind of assay: Thrombin times (TT), blood coagulation in vitro. In kind it is biochemical. Conditions: thrombin 4 μ/ml. How it is done:
A mixture of 0.2 ml of normal rabbit plasma and 0.05 ml of buffer containing the inhibitor at 6 times the desired final concentration was warmed to 37° C. Clotting was initiated by addition of thrombin (0.05 ml at 6 times the final concentration). The thrombin used was purchased from Sigma Chemical Company (No. T-6634, activity 1190 NIH units per mg protein) and prepared in buffer. The buffer employed for both the inhibitor and the thrombin was 0.1 M Tris buffer (12.10 g/L), containing 0.154 M NaCl (8.84 g/L) and 2.5 mg/ml bovine serum albumin, pH 7.4. The clotting times, measured in seconds, were determined using a fibrometer. The effects of the inhibitor on blood clotting times compared with the blood clotting times of controls run in the absence of inhibitors, are shown in Table 6. Values represent the average of at least three determinations.

Assay [5] concerns the target chymotrypsin (Bos taurus, UniProt P00766). To be noted: literature; cited from earlier work.
The subject of assay [6] is plasma. As to the kind of experiment: Heparin effect on plasma clotting times. In kind it is biochemical. Conditions: assuming molecular weight 15,000 and 150 units/mg.
Assay [7] deals with plasma. Conditions: 0.2-0.4 units of heparin per mL of plasma; cited from earlier work.

For `CC(=O)N[C@H](Cc1ccccc1)C(=O)N1CCC[C@H]1C(=O)N[C@@H](CCCN=C(N)N)B(O)O.Cl` [Ac-(D)Phe-Pro-boroArg-OH, Ac-(D)Phe-Pro-boroArg-OH.HCl], the “clotting times (thrombin times)” value in assay [1] (oral gavage 1 mg, 1 hr) was over 300 s; in assay [1] (oral gavage 1 mg, 2 hr), over 300 s; in assay [1] (oral gavage 1 mg, 3 hr), over 300 s; in assay [1] (oral gavage 1 mg, 4 hr, mean ± standard deviation), 47 ± 4 s; in assay [1] (oral gavage 1 mg, 6 hr, mean ± standard deviation) it was 46 ± 3 s; in assay [1] (oral gavage 1 mg, .5 hr), over 300 s. Also, the “clotting times (thrombin times)” value in assay [1] (oral gavage 2 mg, 4 hr, mean ± standard deviation) is 54 ± 29 s; in assay [1] (oral gavage 2 mg, 6 hr, mean ± standard deviation), 44 ± 4 s; in assay [1] (oral gavage 2 mg, .5 hr), over 300 s; in assay [1] (oral gavage 10 mg, 1 hr), over 300 s; in assay [1] (oral gavage 10 mg, 2 hr) it was over 300 s; in assay [1] (oral gavage 10 mg, 3 hr), over 300 s. For the same molecule, the “clotting times (thrombin times)” value in assay [1] (oral gavage 10 mg, .5 hr) was over 300 s. The Clotting Time is 59.4 s in assay [2] (colonic 3 mg/kg, 0.0 hr); over 300 s in assay [2] (colonic 3 mg/kg, 0.5 hr); over 300 s in assay [2] (colonic 3 mg/kg, 1.0 hr); over 300 s in assay [2] (colonic 3 mg/kg, 2.0 hr); over 300 s in assay [2] (colonic 3 mg/kg, 4.0 hr); over 300 s in assay [2] (colonic 3 mg/kg, 5.0 hr). Further, the Clotting Time is 57.3 s in assay [2] (oral 3 mg/kg, 0.00 hr); over 300 s in assay [2] (oral 3 mg/kg, 0.25 hr); over 300 s in assay [2] (oral 3 mg/kg, 0.50 hr); over 300 s in assay [2] (oral 3 mg/kg, 1.00 hr); over 300 s in assay [2] (oral 3 mg/kg, 2.00 hr); over 300 s in assay [2] (oral 3 mg/kg, 3.00 hr). The Clotting Time was over 300 s in assay [2] (oral 3 mg/kg, 4.00 hr); 66.4 s in assay [2] (rectal 3 mg/kg, 0 hr); over 300 s in assay [2] (rectal 3 mg/kg, 0.25 hr); over 300 s in assay [2] (rectal 3 mg/kg, 0.5 hr); over 300 s in assay [2] (rectal 3 mg/kg, 1.0 hr); over 300 s in assay [2] (rectal 3 mg/kg, 2.0 hr). Further, in assay [2] (rectal 3 mg/kg, 4.0 hr), the Clotting Time is over 300 s. In assay [3], the “rats died within ten minutes of the thrombin infusion” value is recorded as 8 out of 17. In addition, the “Thrombin Times” value in assay [4] (inhibitor 50 nM, mean ± standard deviation) was 32.7 ± 0.8 s; in assay [4] (inhibitor 100 nM, mean ± standard deviation) it was 62.4 ± 7.2 s; in assay [4] (inhibitor 150 nM, terminated at 300 seconds), over 300 s.
As to `CC(=O)N[C@@H](Cc1ccccc1)B(O)O` [(R)-1-acetamido-2-phenylethane boronic acid], the Ki in assay [5] was 4 µM.
Take heparin: the “molar concentration increasing clotting times 2-2.5 fold” value in assay [6] was 86 to 170 nM. The “increase of clotting times” value in assay [7] was 2-2.5 fold.

The values above are taken from patent publication US5187157A, “Peptide boronic acid inhibitors of trypsin-like proteases” (Du Pont Merck Pharmaceutical Company, priority 1988, dated 1993).
